Values after ≈ are worked out from the molar mass of the structure shown. Active and inactive are the calls of the source. The rule behind the calls is not given here.
Columns and labels:
Human alphaherpesvirus 1 = assay: Compound was evaluated for antiviral activity against Herpes simplex virus type 1; ND means Not detected owing to toxicity; assay type: functional, organism-based
Influenza A virus = assay: Compound was evaluated for antiviral activity against Influenza virus A/PR/8; assay type: functional, organism-based
MDCK = assay: Compound was evaluated for inhibition of MDCK cell growth; assay type: functional; details: Canis lupus familiaris
Streptococcus pneumoniae [1] = assay: Compound was evaluated for antibacterial activity against Streptococcus pneumoniae; IA means Inactive; assay type: functional, organism-based
Vero = assay: Compound was evaluated for inhibition of cell growth of Vero cells; assay type: functional; details: Chlorocebus sabaeus
Streptococcus pneumoniae [2] = assay: Compound was evaluated for antibacterial activity against Streptococcus pneumoniae; weak activity; assay type: functional, organism-based
Candida albicans = assay: Compound was evaluated for inhibitory activity on Candida albicans; active; assay type: functional, organism-based

In the case of `CCCCCCC/C=C\C[C@@H]1CCC[C@@H]2CCCN21`, the IC50 (Human alphaherpesvirus 1) is reported as “Not detected”, the IC50 (Influenza A virus) is reported as 4.2 µg/mL (≈ 15.9 µM) and the CC50 (MDCK) is reported as 17.1 µg/mL (≈ 64.9 µM). For the same molecule, the Activity (Streptococcus pneumoniae [1]) was “inactive” and the CC50 (Vero) was 40.9 µg/mL (≈ 155 µM).
With `CCCCCCC/C=C\C[C@H]1CCC[C@@H]2CCCN21` the IC50 (Human alphaherpesvirus 1) was “Not detected”, the IC50 (Influenza A virus) was 3.72 µg/mL (≈ 14.1 µM) and the CC50 (MDCK) was 9.28 µg/mL (≈ 35.2 µM). For the same molecule, the Activity (Streptococcus pneumoniae [2]) was “weak activity”, the CC50 (Vero) was 7.67 µg/mL (≈ 29.1 µM) and the Activity (Candida albicans) was “Active”.
In the case of `CCCCCCC/C=C/C[C@H]1CCC[C@@H]2CCCN21`, the IC50 (Human alphaherpesvirus 1) is reported as “Not detected”, the IC50 (Influenza A virus) is reported as 4.84 µg/mL (≈ 18.4 µM) and the CC50 (MDCK) is reported as 8.92 µg/mL (≈ 33.9 µM). For the same molecule, the Activity (Streptococcus pneumoniae [2]) was “weak activity” and the CC50 (Vero) was 9.18 µg/mL (≈ 34.8 µM).
`CCCCCCC/C=C/C[C@@H]1CCC[C@@H]2CCCN21` was tested, and the IC50 (Human alphaherpesvirus 1) was “Not detected”, the IC50 (Influenza A virus) was 1.45 µg/mL (≈ 5.5 µM) and the CC50 (MDCK) was 20.1 µg/mL (≈ 76.3 µM). The Activity (Streptococcus pneumoniae [1]) was “inactive” and the CC50 (Vero) was 42.3 µg/mL (≈ 161 µM).

Reference: ChEMBL document CHEMBL1133267, “The total synthesis of piclavines A1-4 and their biological evaluation” (Bioorg Med Chem Lett, 2000)
